Data taken from patent US20220370473A1, “USE OF A BENZODIAZEPINE DERIVATIVE AND METHOD OF TREATMENT OF TRAUMATIC BRAIN INJURY” (CENTRO DE INVESTIGACION Y […] MEDICAMENTOS (CIDEM), priority 2019, published 2022).

Legend:
Type in all cases: in vivo, Male Wistar rats
TBI-induced rats [1] = test: Rotarod test after weight-drop TBI; details: TBI group vs control, JM-20 and TBI+JM-20 groups, p<0.05; FIG. 1
Procedure: (§1) Male Wistar rats (200-250 g), with an average age of 60 days were used, conditioned in boxes with food and water at will. Procedures were performed pursuant to the rules of the Animal Ethics and Welfare Committee UFSM (9426190418).
(§2) TBI was induced through the weight-drop model (MANNIX, R. et al. Chronic Gliosis and Behavioral Deficits in Mice Following Repetitive Mild Traumatic Brain Injury. Journal of Neurosurgery. 2014) A 54 g weight was used released from a 100 cm height freely falling on the animals head. Animals were suspended on aluminum foil, with small cuts to ensure it would break with the impact of the weight allowing for the sudden acceleration of the movement, thus tearing the aluminum foil and falling over a sponge. TBI-induced animals were previously anesthetized with 2% isoflurane. In addition, topical lidocaine was applied to the animals' head to minimize posttraumatic pain (MYCHASIUK, R. et al. A Novel Model of Mild Traumatic Brain Injury for Juvenile Rats. Journal of Visualized Experiments. 2014)
Animals were trained for 5 minutes before the TBI so they could adapt to the apparatus. The testing session comprised 5 trials and concluded when animals fell off the rotor (3.7 cm diameter, velocity 25-30 rpm) or after the cutoff time, i.e. 300 s. (Whishaw et al., 2003). The first fall latency was analyzed.

TBI-induced rats [2] = test: Open field test after weight-drop TBI; details: TBI group vs control and TBI+JM-20 group, p<0.05; FIG. 3
Procedure: as §1, §2
Animals were placed in the central area of an open field (56 cm diameter) that had its surface divided into equal parts. The duration of the test was 300 seconds. The number of times animals walked around the quadrants, the number of their exploratory responses (rearings) and their immobility time were analyzed.

TBI-induced rats [3] = test: Beam-walking test after weight-drop TBI; details: TBI group vs control and JM-20 (alone) groups, p<0.05; FIG. 5
Procedure: as §1
(§3) TBI was induced through the weight-drop model (MANNIX, R. et al. Chronic Gliosis and Behavioral Deficits in Mice Following Repetitive Mild Traumatic Brain Injury. Journal of Neurosurgery. 2014) A 54 g weight was used released from a 100 cm height freely falling on the animals head. Animals were suspended on aluminum foil, with small cuts to ensure it would break with the impact of the weight allowing for the sudden acceleration of the movement, thus tearing the aluminum foil and falling over a sponge. TBI-induced animals were previously anesthetized with 2% isoflurane. […]
The beam-walking test (HAUSSER, N. et al. Detecting Behavioral Deficits in Rats After Traumatic Brain Injury. J. Vis. Exp. (131), e56044, doi:10.3791/56044. 2018.) consists in animals walking on a hanging wooden beam (2.5 cm wide and 100 cm long) to reach a black wooden box placed at the end of the apparatus. […] Three attempts were analyzed. […] The day of the test, the times of each attempt were recorded and their values were averaged.

TBI-induced rats [4] = test: Cerebral edema (brain water content, wet-dry method); details: 24 h after TBI; TBI group vs control and TBI+JM-20 groups, p<0.05; FIG. 6
Procedure: as §1, §3
The cerebral edema was determined measuring the water content of the brain using the wet-dry method described by Chen et al (2014) (CHEN, W. et al. Neuroprotective effect of allicin against traumatic brain injury via Akt/endothelial nitric oxide synthase pathway-mediated anti-inflammatory and anti-oxidative activities. Neurochemistry International. 68:28-37. 2014) Twenty-four hours after the TBI, the animals were sacrificed and their brains were rapidly removed and weighed to determine their wet weight. […] The water content of the brain was calculated using the following formula: […]

p-Akt = test: Western blotting of p-Akt in brain tissue; details: TBI group vs control and TBI+JM-20 groups, p<0.05, FIG. 8
Procedure: as §1
(§4) TBI was induced through the weight-drop model (MANNIX, R. et al. Chronic Gliosis and Behavioral Deficits in Mice Following Repetitive Mild Traumatic Brain Injury. Journal of Neurosurgery. 2014) A 54 g weight was used released from a 100 cm height freely falling on the animals head. […]
(§5) The Western blot test was performed according to Gerbatin et al (2017) with some adjustments (GERBATIN, R. D. R. et al. Guanosine Protects Against Traumatic Brain Injury-Induced Functional Impairments and Neuronal Loss by Modulating Excitotoxicity, Mitochondrial Dysfunction, and Inflammation. Molecular Neurobiology. 54(10):7585-7596. 2017.). […] The protein concentration of each sample was determined by the bicinchonininc acid protein assay (Thermo Fisher Scientific). […]
(§6) The mouse anti-β-actin antibody (1: 10,000, Santa Cruz Biotechnology, Santa Cruz, Calif., EE. UU.) was dyed as an additional control to the protein load. […] Then the bands were quantified using the Image Lab software (Bio-Rad).

iba-1 = test: Western blotting of iba-1 in brain tissue; details: TBI group vs control, JM-20 and TBI+JM-20, p<0.01, FIG. 9
Procedure: as §1, §4, §5, §6

GFAP = test: Western blotting of GFAP in brain tissue; details: cortex and hippocampus; all groups; FIGS. 11 and 12
Procedure: as §1, §4, §5, §6

TBI = test: Overall assessment in animal models after a TBI; details: motor performance; cerebral edema; astrocyte reactivity; microglial activation; pro-survival pathway activation
Procedure: as §1, §2

CCOC(=O)C1=C(C)NC2=C(C=Nc3ccccc3N2)C1c1ccccc1[N+](=O)[O-] (centres unmarked) [JM-20, 3-ethoxycarbonyl-2-methyl-4-(2-nitrophenyl)-4,11-dihydro-1H-pyridol[2,3-b][1,5]benzodiazepine]
first fall latency time on the rotarod test (TBI-induced rats [1]): animals who suffered a TBI showed a reduction of the first fall latency time on the rotarod test in contrast with the other groups
number of rearings during the open field test (TBI-induced rats [2]): a higher number of rearings was observed in comparison with the control and the TBI+JM-20 group
time to complete the beam-walk test (TBI-induced rats [3]): rats in the TBI group took longer to complete the course than the control and JM-20 groups
brain water content (TBI-induced rats [4]): increased in the TBI group in contrast with the control and TBI +JM-20 groups
p-Akt expression in hippocampus (p-Akt): decreased in TBI groups
iba-1 expression in cerebral cortex (iba-1): increased in TBI groups, both in the cerebral cortex in comparison with all the groups
GFAP expression (GFAP): showed no changes in any of the groups
effect on TBI adverse effects (behavioral, morphological and biochemical changes) (TBI): effective in reducing and, in some cases, reversing TBI adverse effects
